The test system of assay [1] is HeLa. Description: Induction of mitochondrial dysfunction in human HeLa cells stably expressing GFP-LC3 assessed as loss of mitochondrial membrane potential at 10 uM after 6 to 24 hrs using TMRE staining by flow cytometry. The format is functional, cell-based.
Assay [2] concerns the target T1, c-Jun N-terminal kinase, JNK (Homo sapiens) (UniProt P45983+P53779+P45984). Description: Induction of JNK phosphorylation in human HeLa cells stably expressing GFP-LC3 assessed as punctuate GFP-LC3 formation at 5 uM after 6 hrs by confocal microscopy. The format is cell-based.
In assay [3] the test system is HeLa. Description: Induction of LC3 autophagy in human HeLa cells stably expressing GFP-LC3 assessed as increase of the LC3-II level after 12 to 24 hrs by Western blotting analysis. The format is functional, cell-based.
Assay [4] has as its system HeLa. In words: Induction of LC3 autophagy in Beclin1 KO human HeLa cells stably expressing GFP-LC3 and transfected of Beclin2 siRNA assessed as increase of the LC3-II level at 10 uM after 6 hrs by Western blotting analysis. The format is functional, cell-based.
Assay [5] has as its system HeLa. In words: Induction of mitochondrial dysfunction in human HeLa cells stably expressing GFP-LC3 assessed as loss of mitochondrial membrane potential at 10 uM after 6 to 24 hrs using TMRE staining by confocal microscopy. The format is functional, cell-based.
Assay [6] deals with HeLa. In words: Induction of LC3 autophagy in human HeLa cells stably expressing GFP-LC3 assessed as increasing number of punctuate GFP-LC3 dots after 6 to 24 hrs by confocal microscopy. The format is functional, cell-based.
Assay [7] deals with HeLa. In words: Induction of LC3 autophagy in ATG5 KO human HeLa cells stably expressing GFP-LC3 assessed as increasing number of punctuate GFP-LC3 dots at 10 uM after 6 hrs by confocal microscopy. The format is functional, cell-based.
The subject of assay [8] is HeLa. Description: Induction of LC3 autophagy in human HeLa cells stably expressing GFP-LC3 assessed as increase of the LC3-II level at 1 to 20 uM by Western blotting analysis. The format is functional, cell-based. To be noted: TDE = time-dependent effect.
Assay [9] concerns HeLa. Description: Induction of ROS production in human HeLa cells stably expressing GFP-LC3 assessed as increase of the LC3-II level at 5 to 10 uM after 6 hrs by Western blot analysis in presence of ROS scavenger NAC. The format is functional, cell-based.
For assay [10], the system named is HeLa. In words: Induction of LC3 autophagy in human HeLa cells stably expressing GFP-LC3 assessed as increasing number of punctuate GFP-LC3 dots at 5 to 10 uM by confocal microscopy. The format is functional, cell-based. Particulars: TDE = time-dependent effect.
Assay [11] has as its system HeLa. Description: Induction of LC3 autophagy in ATG5 KO human HeLa cells stably expressing GFP-LC3 assessed as increase of the LC3-II level at 10 uM after 6 hrs by Western blotting analysis. The format is functional, cell-based.
The subject of assay [12] is HeLa. In words: Induction of mitochondrial ROS production in human HeLa cells at 5 to 10 uM after 24 hrs using Mito-SOX by flow cytometry. The format is functional, cell-based.
The test system of assay [13] is HeLa. Description: Induction of mitochondrial dysfunction in human HeLa cells at 10 uM after 6 to 24 hrs using anti-Tom20 and anti-Tim23 antibodies by Western blotting. The format is functional, cell-based.
The target of assay [14] is T1, c-Jun N-terminal kinase, JNK (Homo sapiens). Description: Induction of JNK phosphorylation in human HeLa cells stably expressing GFP-LC3 assessed as punctuate GFP-LC3 formation at 5 uM after 6 hrs by confocal microscopy in presence of SP600125. The format is cell-based.
For assay [15], the system named is HeLa. In words: Induction of autophagy in human HeLa cells stably expressing GFP-LC3 assessed as increasing number of punctuate GFP-LC3 dots by high-throughput screening. The format is functional, cell-based.
In assay [16] the test system is HeLa. Description: Induction of LC3 autophagy in human HeLa cells stably expressing GFP-LC3 assessed as increasing number of punctuate GFP-LC3 dots at 10 uM after 6 hrs by confocal microscopy. The format is functional, cell-based.
Assay [17] concerns the target T1, c-Jun N-terminal kinase, JNK (Homo sapiens). Description: Induction of JNK phosphorylation in human HeLa cells stably expressing GFP-LC3 assessed as increase of the LC3-II level at 5 uM after 6 hrs by Western blot analysis in presence of SP600125. The format is cell-based.
The target is the same in assay [18]. In words: Induction of JNK phosphorylation in human HeLa cells stably expressing GFP-LC3 assessed as increase of the LC3-II level at 5 uM after 6 hrs by Western blot analysis. The format is cell-based.
Another assay relates to SH-SY5Y. In words: Induction of LC3 autophagy in human SH-SY5Y cells stably expressing GFP-LC3 assessed as increasing number of punctuate GFP-LC3 dots at 10 uM after 6 hrs by confocal microscopy. The format is functional, cell-based.
Assay [19] relates to PC-12. Description: Induction of autophagic degradation of alpha-synuclein in rat PC12 cells cotransfected with GFP-LC3 and alpha-synuclein-myc assessed as reduction in protein level at 10 uM after 12 hrs by Western blot analysis. The format is functional, cell-based.
In assay [20] the test system is HeLa. In words: Induction of LC3 autophagy in human HeLa cells stably expressing GFP-LC3 assessed as increase of the LC3-II level at 10 uM after 6 hrs by immunoblotting. The format is functional, cell-based.
The subject of assay [21] is HeLa. Description: Induction of mitochondrial dysfunction in human HeLa cells at 10 uM after 6 hrs using anti-Tim23 antibody by confocal microscopy. The format is functional, cell-based.
Assay [22] deals with PC-12. Description: Induction of autophagic degradation of alpha-synuclein in […] KO rat PC12 cells cotransfected with GFP-LC3 and alpha-synuclein-myc at 10 uM after 12 hrs by Western blot analysis. The format is functional, cell-based.
In assay [23] the test system is HeLa. In words: Induction of cytosolic ROS production in human HeLa cells at 5 to 10 uM after 24 hrs using DCF by flow cytometry. The format is functional, cell-based.
Assay [24] deals with HeLa. In words: Induction of LC3 autophagy in human HeLa cells stably expressing GFP-LC3 assessed as increase of the LC3-II level at 10 uM after 6 hrs by Western blotting analysis in presence of bafilomycin A1. The format is functional, cell-based.
Assay [25] relates to PC-12. Description: Induction of autophagic degradation of alpha-synuclein in rat PC12 cells cotransfected with GFP-LC3 and alpha-synuclein-myc at 10 uM after 12 hrs by Western blot analysis in presence of bafilomycin A1. The format is functional, cell-based.
Assay [26] concerns HeLa. In words: Induction of mitochondrial dysfunction in human HeLa cells assessed as reduction in mitochondrial mass at 10 uM after 6 to 24 hrs using anti-Tom20 and anti-Tim23 antibodies by Western blotting. The format is functional, cell-based.
Assay [27] relates to PC-12. Description: Induction of autophagic degradation of alpha-synuclein in rat PC12 cells cotransfected with GFP-LC3 assessed as co-localiztion of alpha-synuclein with GFP-LC3 puncta by confocal microscopy. The format is functional, cell-based.
The subject of assay [28] is HeLa. In words: Induction of ROS production in human HeLa cells stably expressing GFP-LC3 assessed as increasing number of punctuate GFP-LC3 dots at 5 to 10 uM after 6 hrs by confocal microscopy in presence of ROS scavenger NAC. The format is functional, cell-based.
For a further assay, the system named is U2OS. Description: Induction of LC3 autophagy in human U2OS cells stably expressing GFP-LC3 assessed as increasing number of punctuate GFP-LC3 dots at 10 uM after 6 hrs by confocal microscopy. The format is functional, cell-based.
The test system of assay [29] is HeLa. In words: Induction of LC3 autophagy in Beclin1 KO human HeLa cells stably expressing GFP-LC3 assessed as increase of the LC3-II level at 10 uM after 6 hrs by Western blotting analysis. The format is functional, cell-based.
The test system of assay [30] is HeLa. In words: Induction of mitochondrial dysfunction in human HeLa cells stably expressing GFP-LC3 at 10 uM after 6 to 24 hrs using anti-Tim23 antibodies by Western blotting. The format is functional, cell-based.
The subject of assay [31] is HeLa. In words: Induction of LC3 autophagy in human HeLa cells stably expressing GFP-LC3 assessed as increasing number of punctuate GFP-LC3 dots at 10 uM after 6 hrs by confocal microscopy in presence of bafilomycin A1. The format is functional, cell-based.

Active and inactive are the calls of the source. No cut-off for these calls is given here.

Consider `CC(C)=C[C@H]1C[C@H](C)[C@]2(CC[C@]3(C)C[C@@H]4C(C)=CC(=O)[C@]4(O)/C(C=O)=C\C[C@H]32)O1`, for which the outcome (in the assay with HeLa [1]; in [2]; in the assay with HeLa [5]; with HeLa [12]; in the assay with HeLa [15]; with HeLa [16]) was Active. Further, the result (in [18]; in the assay with SH-SY5Y; in the assay on PC-12 [19]; in the assay with HeLa [20]; in the assay with HeLa [21]; in the assay on HeLa [23]) was Active. Moreover, the result with HeLa [24], in the assay on PC-12 [27], in the assay with U2OS, with HeLa [29] and in the assay with HeLa [31] was Active. For the same compound, the Activity result in the assay on HeLa [3] is “Dose-dependent effect”; in the assay with HeLa [6], “Dose-dependent effect”; in the assay with HeLa [8], “tde”; in the assay with HeLa [10] it was “tde”. In addition, the result (in the assay on HeLa [4]; in the assay with HeLa [7]; in the assay on HeLa [9]; in the assay on HeLa [11]; in the assay with HeLa [13]; in [14]) was inactive. The result (in assay [17]; with PC-12 [22]; in the assay on PC-12 [25]; in the assay on HeLa [26]; in the assay with HeLa [28]; in the assay on HeLa [30]) was inactive.

As for `CC(C)=C[C@H]1C[C@H](C)[C@]2(CC[C@]3(C)C[C@@H]4C(C)=CC(=O)[C@@H]4/C(C=O)=C\C[C@H]32)O1`, the outcome with HeLa [16] was inactive.

For the origin of these results see ChEMBL document CHEMBL3400017, “3-Anhydro-6-hydroxy-ophiobolin A, a fungal sesterterpene from Bipolaris oryzae induced autophagy and promoted the degradation of α-synuclein in PC12 cells” (Bioorg Med Chem Lett, 2015).
